Results on four compounds are retold here after article PMC10480232 (Scientific Reports, 2023).

For one series, the target named is SARS-CoV-2 HR1 (Severe acute respiratory syndrome coronavirus 2, UniProt P0DTC2). Nature of the series: biochemical. It is filed as binding.
For the next series, the target named is SARS-CoV-1 HR1 (Severe acute respiratory syndrome coronavirus, UniProt P59594). Nature of the series: biochemical. It is filed as binding.
Series [1] relates to SARS-CoV-2 (nCoV/USA_WA1/2020).
In the next series the test system is SARS-CoV-2. As to conditions: 1 h.
The target in series [2] is SARS-CoV-1 spike heptad repeat 1 peptide, biotinylated (SARS-CoV-1). Nature of the series: BLI. (BLI is a label-free optical method that tracks binding on a fibre tip over time.)

Non-standard residues stand in square brackets, D forms with d. Residues, ends and D or L forms follow the SMILES beside them.

For `CC[C@@H](C)[C@@H](NC(=O)[C@H]1CCCN1C(=O)[C@H]1CCCN1C(=O)[C@H](NC(=O)[C@@H](Cc1c[nH]c2ccccc12)NC(=O)[C@@H](CCCCN)NC(=O)[C@@H](CC(C)C)NC(=O)[C@H](NC(=O)[C@@H](CCCCN)NC(=O)CNC(=O)[C@H](NC(=O)[C@@H](CCCCN)NC(=O)[C@@H](CCCCN)NC(=O)[C@@H](CC(C)C)NC(=O)[C@@H](CCCNC(=N)N)NC(=O)[C@@H](CCCCN)NC(=O)[C@@H](CCCNC(=N)N)NC(=O)[C@H](NC(=O)[C@@H](CCCCN)NC(=O)[C@@H](CCCCN)NC(=O)[C@@H](CCCNC(=N)N)NC(=O)[C@@H](CC(C)C)NC(=O)[C@@H](CCCNC(=N)N)NC(=O)[C@@H](CCCNC(=N)N)NC(=O)[C@@H](Cc1ccccc1)NC(=O)[C@@H](CCCNC(=N)N)NC(=O)CNC(=O)[C@H](N)C(C)C)[C@H](C)O)[C@H](C)CC)C(C)C)[C@H](C)CC)C(=O)N[C@@H](C(=O)NCC(=O)N[C@H](CO)C(=O)N[C@@H](C(=O)N1CCC[C@@H]1C(=O)N[C@H](CC(C)C)C(=O)NCC(=O)N[C@H](CO)C(=O)NCC(=O)O)[C@H](C)CC)C(C)C` [D-Yongshi] (H-[dV]G[dR][dF][dR][dR][dL][dR][dK][dK][dT][dR][dK][dR][dL][dK][dK][dI]G[dK][dV][dL][dK][dW][dI][dP][dP][dI][dV]G[dS][dI][dP][dL]G[dS]G-OH; N-terminus and C-terminus assumed), the Kd at SARS-CoV-2 HR1 and on SARS-CoV-1 HR1 was more than 100 µM in each case. Also, the “SARS-CoV-2 inhibition by D-enantiomer (in words)” value in [1] was “only observed at concentrations that also induced substantial cell death”. For the same compound, in the series with Vero hACE2 cells, the “cytotoxicity compared with parent or control peptide (in words)” value is recorded as “greatly increased cytotoxicity”.

Turning to `CC[C@H](C)[C@H](NC(=O)[C@@H](NC(=O)[C@@H](N)CO)[C@@H](C)CC)C(=O)N[C@@H](CC(N)=O)C(=O)N[C@@H](Cc1ccccc1)C(=O)N[C@@H](CCC(=O)O)C(=O)N[C@@H](CCCCN)C(=O)N[C@@H](CC(C)C)C(=O)O` [OVA, reference compound], in the series with Vero hACE2 cells, the “Vero TD50 48 h” value was more than 50 µM. Moreover, the “HEK293T TD50” value in the series on HEK293T cells is on record as more than 50 µM. Also, the “Vero TD50 24 h” value in the series with Vero A2T2 cell line is listed as more than 400 µM.

Take `CC[C@H](C)[C@H](NC(=O)[C@H](CCCCN)NC(=O)[C@H](CCCCN)NC(=O)[C@H](CC(C)C)NC(=O)[C@H](CCCNC(=N)N)NC(=O)[C@H](CCCCN)NC(=O)[C@H](CCCNC(=N)N)NC(=O)[C@@H](NC(=O)[C@H](CCCCN)NC(=O)[C@H](CCCCN)NC(=O)[C@H](CCCNC(=N)N)NC(=O)[C@H](CC(C)C)NC(=O)[C@H](CCCNC(=N)N)NC(=O)[C@H](CCCNC(=N)N)NC(=O)[C@H](Cc1ccccc1)NC(=O)[C@H](CCCNC(=N)N)NC(=O)CNC(=O)[C@@H](N)C(C)C)[C@@H](C)O)C(=O)NCC(=O)N[C@@H](CCCCN)C(=O)N[C@H](C(=O)N[C@@H](CC(C)C)C(=O)N[C@@H](CCCCN)C(=O)N[C@@H](Cc1c[nH]c2ccccc12)C(=O)N[C@H](C(=O)N1CCC[C@H]1C(=O)N1CCC[C@H]1C(=O)N[C@H](C(=O)N[C@H](C(=O)NCC(=O)N[C@@H](CO)C(=O)N[C@H](C(=O)N1CCC[C@H]1C(=O)N[C@@H](CC(C)C)C(=O)NCC(=O)N[C@@H](CS)C(=O)NCC(=O)O)[C@@H](C)CC)C(C)C)[C@@H](C)CC)[C@@H](C)CC)C(C)C` [PMAP-36R] (H-VGRFRRLRKKTRKRLKKIGKVLKWIPPIVGSIPLGCG-OH): in the series with human red blood cells, the “hemolytic activity (in words)” value is reported as “considerable hemolytic activity”. In addition, the “Vero TD50 48 h” value in the series on Vero hACE2 cells was 23.47 µM. Further, the “HEK293T TD50” value in the series with HEK293T cells is 24.61 µM. The “SARS-CoV-2 inhibition at 50 µM” value in the series on SARS-CoV-2 was more than 50%.

Regarding “SARS-CoV-2 spike heptad repeat 2 peptide”, the Kd in series [2] stood at 59.5 µM.

The Kd is a measure of binding affinity in units of concentration.
